Like-named read-outs stand apart in the source and are kept apart here.
What was measured:
[1] = biological target: CDK4 (Homo sapiens (Human), UniProt P11802); test: In vitro kinase inhibition, luminescence (ADP-Glo) with retinoblastoma substrate; format: biochemical
[2] = biological target: CDK6 (Homo sapiens (Human), UniProt Q00534); test: biochemical; format: biochemical
[3] = system: MCF-7; test: Cancer cell proliferation assay, single agent; format: cell-based; settings: Homo sapiens
[4] = system: DU4475; test: Cancer cell proliferation assay, single agent; format: cell-based; settings: Homo sapiens
[5] = biological target: FMS kinase (Homo sapiens (Human), UniProt P07333); test: LanthaScreen kinase assay (ATP, fluorescent-PolyGT substrate, TR-FRET); format: biochemical
Chain of FMS kinase (P07333 20-972): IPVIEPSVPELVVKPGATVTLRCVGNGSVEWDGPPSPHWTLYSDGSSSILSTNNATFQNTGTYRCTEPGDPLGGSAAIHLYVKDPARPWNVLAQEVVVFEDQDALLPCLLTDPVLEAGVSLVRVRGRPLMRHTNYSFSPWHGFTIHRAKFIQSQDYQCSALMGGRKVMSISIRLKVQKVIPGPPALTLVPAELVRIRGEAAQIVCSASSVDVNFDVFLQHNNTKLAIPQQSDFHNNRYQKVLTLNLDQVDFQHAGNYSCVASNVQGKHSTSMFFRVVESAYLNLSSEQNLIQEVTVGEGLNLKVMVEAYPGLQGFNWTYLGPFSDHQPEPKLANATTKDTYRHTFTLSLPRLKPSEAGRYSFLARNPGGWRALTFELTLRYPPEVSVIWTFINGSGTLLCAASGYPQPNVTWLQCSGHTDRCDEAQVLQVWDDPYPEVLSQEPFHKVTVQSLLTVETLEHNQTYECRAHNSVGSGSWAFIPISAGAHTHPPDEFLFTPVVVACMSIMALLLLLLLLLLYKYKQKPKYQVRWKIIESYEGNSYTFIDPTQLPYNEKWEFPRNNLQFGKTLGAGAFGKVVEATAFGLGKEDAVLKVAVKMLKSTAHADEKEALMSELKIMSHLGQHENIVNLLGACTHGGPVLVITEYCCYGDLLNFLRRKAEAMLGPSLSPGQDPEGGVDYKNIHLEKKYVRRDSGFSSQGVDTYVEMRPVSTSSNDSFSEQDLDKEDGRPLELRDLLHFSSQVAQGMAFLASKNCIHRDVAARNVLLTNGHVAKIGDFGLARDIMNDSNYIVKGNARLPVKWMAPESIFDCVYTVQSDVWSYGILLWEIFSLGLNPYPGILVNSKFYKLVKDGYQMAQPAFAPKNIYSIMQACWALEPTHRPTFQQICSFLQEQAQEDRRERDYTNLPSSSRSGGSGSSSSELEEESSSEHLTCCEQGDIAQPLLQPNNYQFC

[6] = biological target: PI3Kδ kinase (Homo sapiens (Human), UniProt O00329); test: PI3Kδ kinase ADP-Glo assay (Reaction Biology Corporation); settings: read-out: PI3Kδ IC50
Chain of PI3Kδ kinase (O00329 whole entry): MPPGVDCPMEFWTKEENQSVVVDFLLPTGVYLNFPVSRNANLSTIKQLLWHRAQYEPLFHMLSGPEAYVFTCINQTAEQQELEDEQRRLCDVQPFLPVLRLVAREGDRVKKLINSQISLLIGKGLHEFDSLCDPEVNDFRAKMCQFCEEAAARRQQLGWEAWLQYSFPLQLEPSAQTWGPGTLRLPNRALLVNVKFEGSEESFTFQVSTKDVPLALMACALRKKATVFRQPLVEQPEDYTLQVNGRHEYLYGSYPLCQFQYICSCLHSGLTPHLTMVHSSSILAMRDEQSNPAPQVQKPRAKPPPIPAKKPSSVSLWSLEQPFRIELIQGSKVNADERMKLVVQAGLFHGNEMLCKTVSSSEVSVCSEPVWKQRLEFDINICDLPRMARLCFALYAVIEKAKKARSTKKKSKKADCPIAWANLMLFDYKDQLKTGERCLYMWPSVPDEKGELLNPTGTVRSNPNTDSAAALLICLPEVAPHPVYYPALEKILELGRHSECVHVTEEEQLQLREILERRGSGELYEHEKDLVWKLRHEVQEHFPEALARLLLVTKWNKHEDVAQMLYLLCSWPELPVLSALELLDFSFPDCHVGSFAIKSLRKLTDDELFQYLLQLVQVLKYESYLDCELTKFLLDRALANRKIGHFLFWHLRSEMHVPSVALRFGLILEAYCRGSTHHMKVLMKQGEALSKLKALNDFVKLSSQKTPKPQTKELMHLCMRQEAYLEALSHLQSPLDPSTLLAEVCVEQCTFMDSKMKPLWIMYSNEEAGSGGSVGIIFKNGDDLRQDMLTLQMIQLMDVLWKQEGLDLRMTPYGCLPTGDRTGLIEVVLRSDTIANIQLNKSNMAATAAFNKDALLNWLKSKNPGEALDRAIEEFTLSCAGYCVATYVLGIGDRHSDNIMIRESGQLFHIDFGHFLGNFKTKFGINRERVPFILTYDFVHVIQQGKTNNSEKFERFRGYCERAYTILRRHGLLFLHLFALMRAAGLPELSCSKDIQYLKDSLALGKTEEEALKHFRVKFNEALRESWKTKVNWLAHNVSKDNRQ
Chain of PI3Kδ kinase (P27986 whole entry partner): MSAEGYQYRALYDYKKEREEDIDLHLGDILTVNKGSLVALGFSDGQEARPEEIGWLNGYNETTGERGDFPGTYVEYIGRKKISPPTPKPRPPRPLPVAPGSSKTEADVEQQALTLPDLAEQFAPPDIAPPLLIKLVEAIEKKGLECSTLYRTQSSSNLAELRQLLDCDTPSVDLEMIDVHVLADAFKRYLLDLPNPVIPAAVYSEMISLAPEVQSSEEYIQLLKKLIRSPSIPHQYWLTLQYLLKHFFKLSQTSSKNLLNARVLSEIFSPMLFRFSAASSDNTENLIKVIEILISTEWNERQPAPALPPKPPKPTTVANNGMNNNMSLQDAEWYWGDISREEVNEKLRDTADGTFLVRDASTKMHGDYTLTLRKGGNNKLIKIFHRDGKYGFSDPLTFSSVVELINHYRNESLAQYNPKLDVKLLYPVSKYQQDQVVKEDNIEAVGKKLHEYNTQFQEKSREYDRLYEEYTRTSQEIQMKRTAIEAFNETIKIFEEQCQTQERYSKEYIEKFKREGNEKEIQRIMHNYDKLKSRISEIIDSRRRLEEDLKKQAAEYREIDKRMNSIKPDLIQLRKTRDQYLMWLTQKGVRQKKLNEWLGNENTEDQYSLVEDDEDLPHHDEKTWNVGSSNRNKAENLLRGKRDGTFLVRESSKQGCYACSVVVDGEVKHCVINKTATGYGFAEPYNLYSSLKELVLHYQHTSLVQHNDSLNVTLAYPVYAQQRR

[7] = MCF7, MCF-7 cells, treated for 24-168 hours, read-out: IC50 (nM) MCF-7
[8] = DU-4475, DU4475 cells, treated for 24-168 hours, read-out: IC50 (nM) DU4475
[9] = DU-4475, read-out: IC50 (nM) DU4475
[10] = MCF7, read-out: IC50 (nM) MCF-7

Chain of CDK4 (P11802 whole entry): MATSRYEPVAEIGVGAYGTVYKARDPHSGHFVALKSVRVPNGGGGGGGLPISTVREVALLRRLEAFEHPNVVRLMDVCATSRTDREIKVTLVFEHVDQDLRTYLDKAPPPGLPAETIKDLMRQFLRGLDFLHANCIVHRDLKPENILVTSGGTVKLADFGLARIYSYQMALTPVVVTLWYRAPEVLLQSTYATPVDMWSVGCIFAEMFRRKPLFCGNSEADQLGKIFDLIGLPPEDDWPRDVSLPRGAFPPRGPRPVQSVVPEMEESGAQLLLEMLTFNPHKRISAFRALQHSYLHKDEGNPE
Chain of CDK4 (P24385 whole entry partner): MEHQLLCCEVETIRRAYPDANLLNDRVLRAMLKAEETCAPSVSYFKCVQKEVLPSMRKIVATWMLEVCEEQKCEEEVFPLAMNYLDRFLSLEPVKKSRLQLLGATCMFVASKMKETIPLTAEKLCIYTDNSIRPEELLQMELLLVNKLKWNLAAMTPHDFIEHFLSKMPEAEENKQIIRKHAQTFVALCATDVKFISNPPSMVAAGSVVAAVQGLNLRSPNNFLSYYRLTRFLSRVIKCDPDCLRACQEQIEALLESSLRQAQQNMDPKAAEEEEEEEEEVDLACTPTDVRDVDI

Row | Compound | IC50 [1] | IC50 [2] | IC50 [3, 7] | IC50 [4, 8] | IC50 [5] | IC50 [6] | IC50 [4, 9] | IC50 [3, 10]
1 | CC(C)N1CCOc2c(F)cc(-c3nc(Nc4ccc(C(=O)N5CCC(O)CC5)c(F)c4)ncc3F)cc21 [Compound 458, (2-fluoro-4-((5-fluoro-4-(8-fluoro-4-isopropyl-3,4-dihydro-2H-benzo[b][1,4]oxazin-6-yl)pyrimidin-2-yl)amino)phenyl)(4-hydroxypiperidin-1-yl)methanone] | 0.5 nM | 10 nM | 30 nM | – | 29 nM | – | 35 nM | –
2 | CC(C)N1CCOc2c(F)cc(-c3nc(Nc4cnn(C5CCNCC5)c4)ncc3F)cc21 [Compound 448, 5-fluoro-4-(8-fluoro-4-isopropyl-3,4-dihydro-2H-benzo[b][1,4]oxazin-6-yl)-N-(1-(piperidin-4-yl)-1H-pyrazol-4-yl)pyrimidin-2-amine] | 3.2 nM | – | 50 nM | – | 8 nM | 8.02 µM | – | –
3 | CCN1CCC(c2ccc(Nc3ncc(F)c(-c4cc(F)c5c(c4)N(C(C)C)CCO5)n3)nc2)CC1 [Compound 501, N-(5-(1-ethylpiperidin-4-yl)pyridin-2-yl)-5-fluoro-4-(8-fluoro-4-isopropyl-3,4-dihydro-2H-benzo[b][1,4]oxazin-6-yl)pyrimidin-2-amine] | 2 nM | 5 nM | – | – | – | – | 1020 nM | 140 nM
4 | CC(C)N1CCOc2c(F)cc(-c3nc(Nc4ccc(N5CCC(N)CC5)cn4)ncc3F)cc21 [Compound 788, N-(5-(4-aminopiperidin-1-yl)pyridin-2-yl)-5-fluoro-4-(8-fluoro-4-isopropyl-3,4-dihydro-2H-benzo[b][1,4]oxazin-6-yl)pyrimidin-2-amine] | 2 nM | 4 nM | 130 nM | – | – | – | 920 nM | –
5 | CC(C)N1CCOc2c(F)cc(-c3nc(Nc4ccc(CN5CCN(C)CC5)c(F)c4)ncc3F)cc21 [Compound 792, 5-fluoro-N-(3-fluoro-4-((4-methylpiperazin-1-yl)methyl)phenyl)-4-(8-fluoro-4-isopropyl-3,4-dihydro-2H-benzo[b][1,4]oxazin-6-yl)pyrimidin-2-amine] | 4 nM | 4 nM | 32 nM | – | – | – | 75 nM | –
6 | CC(C)N1CCOc2c(F)cc(-c3nc(Nc4ccc(C5CCN(C(=O)CO)CC5)cn4)ncc3F)cc21 [Compound 510, 1-(4-(6-((5-fluoro-4-(8-fluoro-4-isopropyl-3,4-dihydro-2H-benzo[b][1,4]oxazin-6-yl)pyrimidin-2-yl)amino)pyridin-3-yl)piperidin-1-yl)-2-hydroxyethan-1-one] | 3 nM | 4 nM | – | – | – | – | 1970 nM | 293 nM
7 | CCN1CCN(C(=O)c2ccc(Nc3ncc(F)c(-c4cc(F)c5c(c4)N(C(C)C)CCO5)n3)cc2F)CC1 [Compound 464, (4-ethylpiperazin-1-yl)(2-fluoro-4-((5-fluoro-4-(8-fluoro-4-isopropyl-3,4-dihydro-2H-benzo[b][1,4]oxazin-6-yl)pyrimidin-2-yl)amino)phenyl)methanone] | 8.5 nM | 22 nM | 85 nM | 80 nM | 42 nM | – | – | –
8 | CC(C)N1CCOc2c(F)cc(-c3nc(Nc4ccc(C5CCN(C)CC5)nn4)ncc3F)cc21 [Compound 517, N-(5-fluoro-4-(8-fluoro-4-isopropyl-3,4-dihydro-2H-benzo[b][1,4]oxazin-6-yl)pyrimidin-2-yl)-6-(1-methylpiperidin-4-yl)pyridazin-3-amine] | 1.5 nM | 4 nM | 108 nM | 275 nM | – | – | – | –
9 | CC(C)N1CCOc2c(F)cc(-c3nc(Nc4ccc(N5CCNCC5)nc4)ncc3F)cc21 [Compound 23, 5-fluoro-4-(8-fluoro-4-isopropyl-3,4-dihydro-2H-benzo[b][1,4]oxazin-6-yl)-N-(6-(piperazin-1-yl)pyridin-3-yl)pyrimidin-2-amine] | – | – | – | – | 25 nM | 4.88 µM | – | < 10 nM

Continued, in another order:

Row | IC50 [1] | IC50 [2] | IC50 [3, 7] | IC50 [4, 8] | IC50 [5] | IC50 [6] | Compound | IC50 [4, 9] | IC50 [3, 10]
10 | 145 nM | > 200 nM | 2500 nM | > 10000 nM | – | – | CC1CN(c2ccc(Nc3ncc(F)c(-c4cc(F)c5c(c4)N(C(C)C)CCO5)n3)nc2)CC(C)O1 (centres unmarked) [Compound 515, N-(5-(2,6-dimethylmorpholino)pyridin-2-yl)-5-fluoro-4-(8-fluoro-4-isopropyl-3,4-dihydro-2H-benzo[b][1,4]oxazin-6-yl)pyrimidin-2-amine] | – | –
11 | 1 nM | 4 nM | 155 nM | 995 nM | – | – | CC(C)N1CCOc2c(F)cc(-c3nc(Nc4ccc(CN5CCN(CC6CC6)CC5)cn4)ncc3F)cc21 [Compound 516, N-(5-((4-(cyclopropylmethyl)piperazin-1-yl)methyl)pyridin-2-yl)-5-fluoro-4-(8-fluoro-4-isopropyl-3,4-dihydro-2H-benzo[b][1,4]oxazin-6-yl)pyrimidin-2-amine] | – | –
12 | – | – | 495 nM | – | 46 nM | > 30 µM | CC(C)N1CCOc2c(F)cc(-c3nc(Nc4ccc(N5CCSCC5)c(F)c4)ncc3F)cc21 [Compound 469, 5-fluoro-4-(8-fluoro-4-isopropyl-3,4-dihydro-2H-benzo[b][1,4]oxazin-6-yl)-N-(3-fluoro-4-thiomorpholinophenyl)pyrimidin-2-amine] | – | –
13 | – | 3 nM | 17 nM | 20 nM | – | – | CC(C)N1CCOc2c(F)cc(-c3nc(Nc4ccc(C(N)=O)c(F)c4)ncc3F)cc21 [Compound 790, 2-fluoro-4-((5-fluoro-4-(8-fluoro-4-isopropyl-3,4-dihydro-2H-benzo[b][1,4]oxazin-6-yl)pyrimidin-2-yl)amino)benzamide] | – | –
14 | 3.5 nM | 7.5 nM | 55 nM | 30 nM | 68 nM | – | CC(C)N1CCOc2c(F)cc(-c3nc(Nc4ccc(C(=O)N5CCOCC5)c(F)c4)ncc3F)cc21 [Compound 457, (2-fluoro-4-((5-fluoro-4-(8-fluoro-4-isopropyl-3,4-dihydro-2H-benzo[b][1,4]oxazin-6-yl)pyrimidin-2-yl)amino)phenyl)(morpholino)methanone] | – | –
15 | 5 nM | 18 nM | 240 nM | 1260 nM | – | – | Cc1nc(Nc2ncc(F)c(-c3cc(F)c4c(c3)N(C(C)C)CCO4)n2)ccc1C1CCN(C)CC1 [Compound 503, 5-fluoro-4-(8-fluoro-4-isopropyl-3,4-dihydro-2H-benzo[b][1,4]oxazin-6-yl)-N-(6-methyl-5-(1-methylpiperidin-4-yl)pyridin-2-yl)pyrimidin-2-amine] | – | –
16 | 1.5 nM | 3.5 nM | 20 nM | 25 nM | 17 nM | – | CC(C)N1CCOc2c(F)cc(-c3nc(Nc4ccc(C(=O)N5CCC(N(C)C)CC5)c(F)c4)ncc3F)cc21 [Compound 463, (4-(dimethylamino)piperidin-1-yl)(2-fluoro-4-((5-fluoro-4-(8-fluoro-4-isopropyl-3,4-dihydro-2H-benzo[b][1,4]oxazin-6-yl)pyrimidin-2-yl)amino)phenyl)methanone] | – | –
17 | 9 nM | 41 nM | 90 nM | 205 nM | – | – | CC(C)N1CCOc2c(F)cc(-c3nc(Nc4ccc(S(=O)(=O)NC5CCNCC5)cc4)ncc3F)cc21 [Compound 791, 4-((5-fluoro-4-(8-fluoro-4-isopropyl-3,4-dihydro-2H-benzo[b][1,4]oxazin-6-yl)pyrimidin-2-yl)amino)-N-(piperidin-4-yl)benzenesulfonamide] | – | –
18 | – | – | 354 nM | – | – | – | CC(C)N1CCOc2c(F)cc(-c3nc(Nc4ccc(N5CCN(C(=O)CO)CC5)cn4)ncc3F)cc21 [Compound 506, 1-(4-(6-((5-fluoro-4-(8-fluoro-4-isopropyl-3,4-dihydro-2H-benzo[b][1,4]oxazin-6-yl)pyrimidin-2-yl)amino)pyridin-3-yl)piperazin-1-yl)-2-hydroxyethan-1-one] | 1500 nM | –
19 | 36 nM | 105 nM | 345 nM | 395 nM | – | – | CC(C)N1CCOc2c(F)cc(-c3nc(Nc4ccc(S(=O)(=O)N5CCN(C)CC5)cc4)ncc3F)cc21 [Compound 522, 5-fluoro-4-(8-fluoro-4-isopropyl-3,4-dihydro-2H-benzo[b][1,4]oxazin-6-yl)-N-(4-((4-methylpiperazin-1-yl)sulfonyl)phenyl)pyrimidin-2-amine] | – | –
20 | 5.5 nM | 9 nM | 40 nM | 65 nM | 25 nM | – | CC(C)N1CCOc2c(F)cc(-c3nc(Nc4ccc(CN5CCC(N(C)C)CC5)c(F)c4)ncc3F)cc21 [Compound 462, N-(4-((4-(dimethylamino)piperidin-1-yl)methyl)-3-fluorophenyl)-5-fluoro-4-(8-fluoro-4-isopropyl-3,4-dihydro-2H-benzo[b][1,4]oxazin-6-yl)pyrimidin-2-amine] | – | –
21 | 3.5 nM | 9 nM | 30 nM | 50 nM | 17 nM | – | CCN1CCN(Cc2ccc(Nc3ncc(F)c(-c4cc(F)c5c(c4)N(C(C)C)CCO5)n3)cc2F)CC1 [Compound 461, N-(4-((4-ethylpiperazin-1-yl)methyl)-3-fluorophenyl)-5-fluoro-4-(8-fluoro-4-isopropyl-3,4-dihydro-2H-benzo[b][1,4]oxazin-6-yl)pyrimidin-2-amine] | – | –
22 | 5.5 nM | 19.8 nM | 3670 nM | 7700 nM | – | – | CC(C)N1CCOc2c(F)cc(-c3nc(Nc4ccc(C(N)=O)cn4)ncc3F)cc21 [Compound 521, 6-((5-fluoro-4-(8-fluoro-4-isopropyl-3,4-dihydro-2H-benzo[b][1,4]oxazin-6-yl)pyrimidin-2-yl)amino)nicotinamide] | – | –

Source: patent publication US11174252B2, “Heterocyclic compounds as kinase inhibitors” (priority 2018, dated 2021)
